Measured values reported in PubChem BioAssay (NCI).
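Where inhibition never reached the appropriate level, the endpoint shown equals the highest concentration tested. Otherwise, values were interpolated linearly from a five-concentration, 48-hour dose response in 96-well plates. At the GI50, growth is halved. The concentration for full growth arrest is given as TGI.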

How the values were obtained:
Experiment in all cases: DTP human tumour cell line panel, 48 h
786-0 renal = system: 786-0 renal
A498 renal = system: A498 renal
A549 NSCLC = system: A549 NSCLC
ACHN renal = system: ACHN renal
BT-549 breast = system: BT-549 breast
CAKI-1 renal = system: CAKI-1 renal
CCRF-CEM leukemia = system: CCRF-CEM leukemia
COLO 205 colon = system: COLO 205 colon
DU-145 prostate = system: DU-145 prostate
HCC-2998 colon = system: HCC-2998 colon
HCT-116 colon = system: HCT-116 colon
HCT-15 colon = system: HCT-15 colon
HL-60(TB) leukemia = system: HL-60(TB) leukemia
HOP-62 NSCLC = system: HOP-62 NSCLC
HOP-92 NSCLC = system: HOP-92 NSCLC
HS 578T breast = system: HS 578T breast
HT29 colon = system: HT29 colon
IGROV1 ovarian = system: IGROV1 ovarian
K-562 leukemia = system: K-562 leukemia
KM12 colon = system: KM12 colon
LOX IMVI melanoma = system: LOX IMVI melanoma
M14 melanoma = system: M14 melanoma
MCF7 breast = system: MCF7 breast
MDA-MB-231 breast = system: MDA-MB-231 breast
MDA-MB-435 = system: MDA-MB-435
MOLT-4 leukemia = system: MOLT-4 leukemia
NCI-H226 lung = system: NCI-H226 lung
NCI-H23 lung = system: NCI-H23 lung
NCI-H460 lung = system: NCI-H460 lung
NCI-H522 lung = system: NCI-H522 lung
NCI/ADR-RES ovarian = system: NCI/ADR-RES ovarian
OVCAR-3 ovarian = system: OVCAR-3 ovarian
OVCAR-4 ovarian = system: OVCAR-4 ovarian
OVCAR-5 ovarian = system: OVCAR-5 ovarian
OVCAR-8 ovarian = system: OVCAR-8 ovarian
PC-3 prostate = system: PC-3 prostate
RPMI-8226 leukemia = system: RPMI-8226 leukemia
SF-268 CNS = system: SF-268 CNS
SF-295 CNS = system: SF-295 CNS
SF-539 CNS = system: SF-539 CNS
SK-MEL-2 melanoma = system: SK-MEL-2 melanoma
SK-MEL-28 melanoma = system: SK-MEL-28 melanoma
SK-MEL-5 melanoma = system: SK-MEL-5 melanoma
SK-OV-3 ovarian = system: SK-OV-3 ovarian
SN12C renal = system: SN12C renal
SNB-19 CNS = system: SNB-19 CNS
SNB-75 CNS = system: SNB-75 CNS
SR leukemia = system: SR leukemia
SW-620 colon = system: SW-620 colon
TK-10 renal = system: TK-10 renal
U251 CNS = system: U251 CNS
UACC-257 melanoma = system: UACC-257 melanoma
UACC-62 melanoma = system: UACC-62 melanoma
UO-31 renal = system: UO-31 renal
EKVX NSCLC = system: EKVX NSCLC
MALME-3M melanoma = system: MALME-3M melanoma
RXF 393 renal = system: RXF 393 renal

For `COc1ccc(-c2cnnn2-c2cc(OC)c3c(c2)OCO3)cc1`, the GI50 (786-0 renal) was 0.544 µM, the TGI (786-0 renal) was > 36.6 µM and the GI50 (A498 renal) was 0.0444 µM. For the same molecule, the TGI (A498 renal) was 0.633 µM, the GI50 (A549 NSCLC) was 0.107 µM and the TGI (A549 NSCLC) was > 100 µM. For the same molecule, the GI50 (ACHN renal) was 0.891 µM, the TGI (ACHN renal) was > 100 µM and the GI50 (BT-549 breast) was 0.101 µM. The TGI (BT-549 breast) was 28.6 µM, the GI50 (CAKI-1 renal) was 0.118 µM and the TGI (CAKI-1 renal) was > 100 µM. The GI50 (CCRF-CEM leukemia) was 0.148 µM, the TGI (CCRF-CEM leukemia) was > 100 µM and the GI50 (COLO 205 colon) was 0.0578 µM. For the same molecule, the TGI (COLO 205 colon) was 0.52 µM, the GI50 (DU-145 prostate) was 0.291 µM and the GI50 (HCC-2998 colon) was 0.307 µM. For the same molecule, the GI50 (HCT-116 colon) was 0.0596 µM, the TGI (HCT-116 colon) was > 42.3 µM and the GI50 (HCT-15 colon) was 0.0481 µM. For the same molecule, the TGI (HCT-15 colon) was > 100 µM, the GI50 (HL-60(TB) leukemia) was 0.0761 µM and the TGI (HL-60(TB) leukemia) was 2.72 µM. The GI50 (HOP-62 NSCLC) was 0.113 µM, the TGI (HOP-62 NSCLC) was > 100 µM and the GI50 (HOP-92 NSCLC) was 0.187 µM. The TGI (HOP-92 NSCLC) was 24.8 µM, the GI50 (HS 578T breast) was 0.186 µM and the TGI (HS 578T breast) was > 100 µM. For the same molecule, the GI50 (HT29 colon) was 0.0454 µM, the GI50 (IGROV1 ovarian) was 0.28 µM and the TGI (IGROV1 ovarian) was > 100 µM. For the same molecule, the GI50 (K-562 leukemia) was 0.0417 µM, the TGI (K-562 leukemia) was > 100 µM and the GI50 (KM12 colon) was 0.0564 µM. For the same molecule, the TGI (KM12 colon) was > 30.8 µM, the GI50 (LOX IMVI melanoma) was 0.491 µM and the TGI (LOX IMVI melanoma) was > 100 µM. For the same molecule, the GI50 (M14 melanoma) was 0.0537 µM, the TGI (M14 melanoma) was > 100 µM and the GI50 (MCF7 breast) was 0.0463 µM. For the same molecule, the TGI (MCF7 breast) was > 100 µM, the GI50 (MDA-MB-231 breast) was 0.194 µM and the TGI (MDA-MB-231 breast) was 4.63 µM. It also gave a GI50 (MDA-MB-435) of 0.0202 µM, a TGI (MDA-MB-435) of 0.0512 µM and a GI50 (MOLT-4 leukemia) of 0.266 µM. The TGI (MOLT-4 leukemia) was > 27.2 µM, the GI50 (NCI-H226 lung) was 5.71 µM and the TGI (NCI-H226 lung) was > 100 µM. For the same molecule, the GI50 (NCI-H23 lung) was 0.286 µM, the TGI (NCI-H23 lung) was > 100 µM and the GI50 (NCI-H460 lung) was 0.0728 µM. For the same molecule, the TGI (NCI-H460 lung) was > 29.2 µM, the GI50 (NCI-H522 lung) was 0.0354 µM and the TGI (NCI-H522 lung) was 0.525 µM. For the same molecule, the GI50 (NCI/ADR-RES ovarian) was 0.0403 µM, the GI50 (OVCAR-3 ovarian) was 0.0547 µM and the TGI (OVCAR-3 ovarian) was 0.437 µM. The GI50 (OVCAR-4 ovarian) was 5.9 µM, the TGI (OVCAR-4 ovarian) was > 100 µM and the GI50 (OVCAR-5 ovarian) was 0.502 µM. The TGI (OVCAR-5 ovarian) was > 100 µM, the GI50 (OVCAR-8 ovarian) was 0.304 µM and the TGI (OVCAR-8 ovarian) was > 100 µM. For the same molecule, the GI50 (PC-3 prostate) was 0.167 µM, the TGI (PC-3 prostate) was > 100 µM and the GI50 (RPMI-8226 leukemia) was 0.256 µM. The TGI (RPMI-8226 leukemia) was > 100 µM, the GI50 (SF-268 CNS) was 0.775 µM and the TGI (SF-268 CNS) was > 100 µM. The GI50 (SF-295 CNS) was 0.0585 µM, the TGI (SF-295 CNS) was > 100 µM and the GI50 (SF-539 CNS) was 0.116 µM. For the same molecule, the TGI (SF-539 CNS) was 0.411 µM, the GI50 (SK-MEL-2 melanoma) was 0.0955 µM and the TGI (SK-MEL-2 melanoma) was 90.4 µM. For the same molecule, the GI50 (SK-MEL-28 melanoma) was 0.58 µM, the TGI (SK-MEL-28 melanoma) was > 100 µM and the GI50 (SK-MEL-5 melanoma) was 0.185 µM. For the same molecule, the TGI (SK-MEL-5 melanoma) was 7.33 µM, the GI50 (SK-OV-3 ovarian) was 0.348 µM and the TGI (SK-OV-3 ovarian) was > 100 µM. The GI50 (SN12C renal) was 0.658 µM, the TGI (SN12C renal) was > 100 µM and the TGI (SNB-19 CNS) was > 100 µM. The GI50 (SNB-75 CNS) was 0.0741 µM, the TGI (SNB-75 CNS) was > 100 µM and the GI50 (SR leukemia) was 0.0466 µM. The TGI (SR leukemia) was > 51.7 µM, the GI50 (SW-620 colon) was 0.0531 µM and the TGI (SW-620 colon) was > 100 µM. For the same molecule, the GI50 (TK-10 renal) was 25 µM, the TGI (TK-10 renal) was > 100 µM and the GI50 (U251 CNS) was 0.231 µM. For the same molecule, the TGI (U251 CNS) was > 100 µM, the GI50 (UACC-257 melanoma) was 35.4 µM and the TGI (UACC-257 melanoma) was > 100 µM. The GI50 (UACC-62 melanoma) was 0.235 µM, the TGI (UACC-62 melanoma) was > 100 µM and the GI50 (UO-31 renal) was 1.1 µM. The TGI (UO-31 renal) was > 100 µM.
With `CC(=O)NCCSC(=O)c1ccccc1` the TGI (786-0 renal) was 0.425 µM, the TGI (A549 NSCLC) was 2.06 µM and the TGI (ACHN renal) was 0.0971 µM. The TGI (BT-549 breast) was 3.75 µM, the TGI (CAKI-1 renal) was 0.239 µM and the TGI (CCRF-CEM leukemia) was 0.49 µM. It also gave a TGI (COLO 205 colon) of 0.516 µM, a TGI (DU-145 prostate) of 2.62 µM and a TGI (EKVX NSCLC) of 8.24 µM. The TGI (HCT-116 colon) was 0.275 µM, the TGI (HCT-15 colon) was 1.04 µM and the GI50 (HL-60(TB) leukemia) was 0.026 µM. The TGI (HL-60(TB) leukemia) was 0.829 µM, the TGI (HOP-62 NSCLC) was 0.525 µM and the TGI (HOP-92 NSCLC) was 15.5 µM. The TGI (HS 578T breast) was 5.52 µM, the TGI (HT29 colon) was > 78.2 µM and the TGI (IGROV1 ovarian) was > 29.6 µM. It also gave a TGI (KM12 colon) of 2.54 µM, a TGI (LOX IMVI melanoma) of 0.306 µM and a TGI (M14 melanoma) of 0.242 µM. It also gave a TGI (MALME-3M melanoma) of 0.304 µM, a TGI (MDA-MB-231 breast) of 7.71 µM and a TGI (MDA-MB-435) of 0.371 µM. The TGI (MOLT-4 leukemia) was 0.0902 µM, the TGI (NCI-H226 lung) was 0.413 µM and the TGI (NCI-H23 lung) was 0.191 µM. The TGI (NCI-H460 lung) was 6.44 µM, the TGI (NCI/ADR-RES ovarian) was 0.688 µM and the TGI (OVCAR-3 ovarian) was 0.944 µM. For the same molecule, the TGI (OVCAR-4 ovarian) was > 42.8 µM, the TGI (OVCAR-5 ovarian) was 0.527 µM and the TGI (OVCAR-8 ovarian) was 0.81 µM. The TGI (PC-3 prostate) was 4.07 µM, the TGI (RPMI-8226 leukemia) was 2.26 µM and the TGI (RXF 393 renal) was 0.958 µM. It also gave a TGI (SF-268 CNS) of 2.02 µM, a TGI (SF-295 CNS) of 0.83 µM and a TGI (SF-539 CNS) of 1.39 µM. It also gave a TGI (SK-MEL-2 melanoma) of 0.827 µM, a TGI (SK-MEL-28 melanoma) of 1.14 µM and a TGI (SK-MEL-5 melanoma) of 0.0801 µM. The TGI (SK-OV-3 ovarian) was 14.8 µM, the TGI (SN12C renal) was 0.492 µM and the TGI (SNB-19 CNS) was 15.2 µM. The TGI (SNB-75 CNS) was 12.4 µM, the TGI (SR leukemia) was 0.66 µM and the TGI (TK-10 renal) was 0.475 µM. It also gave a TGI (U251 CNS) of 0.759 µM, a TGI (UACC-257 melanoma) of 0.419 µM and a TGI (UACC-62 melanoma) of 0.0786 µM.
